# Reference: ChEMBL document CHEMBL3390836, “Mannich- and LedererManasse-based analogues of the natural product S-(+)-curcuphenol as cancer proliferation and migration inhibitors” (Medchemcomm, 2012)
# Assays:
# Format in all cases: functional
# HCC 2998 = experiment: Cytotoxicity against human HCC2998 cells assessed as cell growth at 10^-7 M after 48 hrs by SRB assay relative to control; details: HCC 2998, 48 h, read-out: Activity
# K562 = experiment: Cytotoxicity against human K562 cells assessed as cell growth at 10^-7 M after 48 hrs by SRB assay relative to control; details: K562, 48 h, read-out: Activity
# MCF7 = experiment: Cytotoxicity against human MCF7 cells after 48 hrs by SRB assay; details: MCF7, 48 h
# KM12 = experiment: Cytotoxicity against human KM12 cells after 48 hrs by SRB assay; details: KM12, 48 h
# SW-620 = experiment: Cytotoxicity against human SW620 cells assessed as cell growth at 10^-7 M after 48 hrs by SRB assay relative to control; details: SW-620, 48 h, read-out: Activity
# [1] = Cytotoxicity against human SKOV3 cells assessed as cell growth at 10^-6 M after 48 hrs by SRB assay relative to control; details: SK-OV-3, 48 h, read-out: Activity
# [2] = Cytotoxicity against human OVCAR4 cells assessed as cell growth at 10^-6 M after 48 hrs by SRB assay relative to control; details: OVCAR-4, 48 h, read-out: Activity
# SF-268 [3] = experiment: Cytotoxicity against human SF268 cells assessed as cell growth at 10^-6 M after 48 hrs by SRB assay relative to control; details: SF-268, 48 h, read-out: Activity
# MDA-MB-435 = experiment: Cytotoxicity against human MDA-MB-435 cells assessed as cell growth at 10^-7 M after 48 hrs by SRB assay relative to control; details: MDA-MB-435, 48 h, read-out: Activity
# Malme-3M [4] = experiment: Cytotoxicity against human MALME-3M cells assessed as cell growth at 10^-7 M after 48 hrs by SRB assay relative to control; details: read-out: Activity
# CAKI-1 [5] = experiment: Cytotoxicity against human Caki1 cells assessed as cell growth at 10^-6 M after 48 hrs by SRB assay relative to control; details: CAKI-1, 48 h, read-out: Activity
# [6] = Cytotoxicity against human OVCAR8 cells assessed as cell growth at 10^-6 M after 48 hrs by SRB assay relative to control; details: OVCAR-8, 48 h, read-out: Activity
# MDA-MB-468 = experiment: Cytotoxicity against human MDA-MB-468 cells assessed as cell growth at 10^-6 M after 48 hrs by SRB assay relative to control; details: MDA-MB-468, 48 h, read-out: Activity
# [7] = Cytotoxicity against human UACC62 cells assessed as cell growth at 10^-6 M after 48 hrs by SRB assay relative to control; details: UACC-62, 48 h, read-out: Activity
# CAKI-1 [8] = experiment: Cytotoxicity against human Caki1 cells after 48 hrs by SRB assay; details: CAKI-1, 48 h
# MDA-MB-231 = experiment: Cytotoxicity against human MDA-MB-231 cells assessed as cell growth at 10^-4 M after 48 hrs by SRB assay relative to control; details: MDA-MB-231, 48 h, read-out: Activity
# SNB-19 [9] = experiment: Cytotoxicity against human SNB19 cells assessed as cell growth at 10^-6 M after 48 hrs by SRB assay relative to control; details: SNB-19, 48 h, read-out: Activity
# SF-539 = experiment: Cytotoxicity against human SF539 cells assessed as cell growth at 10^-6 M after 48 hrs by SRB assay relative to control; details: SF-539, 48 h, read-out: Activity
# [10] = Cytotoxicity against human OVCAR5 cells assessed as cell growth at 10^-8 M after 48 hrs by SRB assay relative to control; details: OVCAR-5, 48 h, read-out: Activity
# SK-MEL-28 = experiment: Cytotoxicity against human SK-MEL-28 cells after 48 hrs by SRB assay; details: SK-MEL-28, 48 h
# [11] = Cytotoxicity against human HCT116 cells assessed as cell growth at 10^-7 M after 48 hrs by SRB assay relative to control; details: HCT-116, 48 h, read-out: Activity
# [12] = Cytotoxicity against human HCT116 cells assessed as cell growth at 10^-8 M after 48 hrs by SRB assay relative to control; details: HCT-116, 48 h, read-out: Activity
# SF-295 = experiment: Cytotoxicity against human SF295 cells assessed as cell growth at 10^-7 M after 48 hrs by SRB assay relative to control; details: SF-295, 48 h, read-out: Activity
# SF-268 [13] = experiment: Cytotoxicity against human SF268 cells assessed as cell growth at 10^-4 M after 48 hrs by SRB assay relative to control; details: SF-268, 48 h, read-out: Activity
# Malme-3M [14] = experiment: Cytotoxicity against human MALME-3M cells assessed as cell growth at 10^-6 M after 48 hrs by SRB assay relative to control; details: read-out: Activity
# SN12C = experiment: Cytotoxicity against human SN12C cells assessed as cell growth at 10^-8 M after 48 hrs by SRB assay relative to control; details: read-out: Activity
# [15] = Cytotoxicity against human OVCAR8 cells assessed as cell growth at 10^-4 M after 48 hrs by SRB assay relative to control; details: OVCAR-8, 48 h, read-out: Activity
# MOLT-4 = experiment: Cytotoxicity against human MOLT4 cells assessed as cell growth at 10^-6 M after 48 hrs by SRB assay relative to control; details: MOLT-4, 48 h, read-out: Activity
# [16] = Cytotoxicity against human HCT116 cells assessed as cell growth at 10^-6 M after 48 hrs by SRB assay relative to control; details: HCT-116, 48 h, read-out: Activity
# IGROV-1 = experiment: Cytotoxicity against human IGROV1 cells assessed as cell growth at 10^-8 M after 48 hrs by SRB assay relative to control; details: IGROV-1, 48 h, read-out: Activity
# T47D = experiment: Cytotoxicity against human T47D cells after 48 hrs by SRB assay
# [17] = Cytotoxicity against human OVCAR5 cells assessed as cell growth at 10^-6 M after 48 hrs by SRB assay relative to control; details: OVCAR-5, 48 h, read-out: Activity
# NCI-H322M = experiment: Cytotoxicity against human NCI-H322M cells assessed as cell growth at 10^-4 M after 48 hrs by SRB assay relative to control; details: read-out: Activity
# SNB-19 [18] = experiment: Cytotoxicity against human SNB19 cells after 48 hrs by SRB assay; details: SNB-19, 48 h
# [19] = Cytotoxicity against human OVCAR3 cells assessed as cell growth at 10^-8 M after 48 hrs by SRB assay relative to control; details: OVCAR-3, 48 h, read-out: Activity
# HOP-62 = experiment: Cytotoxicity against human HOP62 cells assessed as cell growth at 10^-7 M after 48 hrs by SRB assay relative to control; details: HOP-62, 48 h, read-out: Activity
# [20] = read-out: LC50 (the source's name)
smiles,measurement,setting,value
COc1ccc(CCN2COc3c([C@@H](C)CCC=C(C)C)ccc(C)c3C2)cc1OC,growth at 0.1 µM,HCC 2998,83%
same,growth at 0.1 µM,K562,95%
same,GI50,MCF7,3.29 µM
same,TGI,MCF7,11 µM
same,CC50,MCF7; [20],36.3 µM
same,GI50,KM12,2860 nM
same,TGI,KM12,9.64 µM
same,CC50,KM12; [20],46.1 µM
same,growth at 0.1 µM,SW-620,93%
same,growth at 1 µM,[1],102%
same,growth at 1 µM,[2],85%
same,growth at 1 µM,SF-268 [3],67%
same,growth at 0.1 µM,MDA-MB-435,95%
same,growth at 0.1 µM,Malme-3M [4],86%
same,growth at 1 µM,CAKI-1 [5],83%
same,growth at 1 µM,[6],94%
same,growth at 1 µM,MDA-MB-468,62%
same,growth at 1 µM,[7],86%
same,GI50,CAKI-1 [8],2730 nM
same,TGI,CAKI-1 [8],12.1 µM
same,CC50,CAKI-1 [8]; [20],41.3 µM
same,growth at 100 µM,MDA-MB-231,-91%
same,growth at 1 µM,SNB-19 [9],95%
same,growth at 1 µM,SF-539,96%
same,growth at 0.01 µM,[10],92%
same,GI50,SK-MEL-28,2210 nM
same,TGI,SK-MEL-28,4.94 µM
same,CC50,SK-MEL-28; [20],13.3 µM
same,growth at 0.1 µM,[11],92%
same,growth at 0.01 µM,[12],98%
same,growth at 0.1 µM,SF-295,92%
same,growth at 100 µM,SF-268 [13],-88%
same,growth at 1 µM,Malme-3M [14],79%
same,growth at 0.01 µM,SN12C,86%
same,growth at 100 µM,[15],-54%
same,growth at 1 µM,MOLT-4,85%
same,growth at 1 µM,[16],97%
same,growth at 0.01 µM,IGROV-1,119%
same,GI50,T47D,1780 nM
same,LC50 (concentration killing 50% of cells),T47D,8.12 µM
same,TGI,T47D,3.8 µM
same,growth at 1 µM,[17],97%
same,growth at 100 µM,NCI-H322M,-69%
same,GI50,SNB-19 [18],12.1 µM
same,TGI,SNB-19 [18],42.8 µM
same,CC50,SNB-19 [18]; [20],> 100 µM
same,growth at 0.01 µM,[19],95%
same,growth at 0.1 µM,HOP-62,96%
